Measurements taken from patent US20090247495A1, “CU[…] AND USES THEREOF” (priority 2007, published 2009).
Entries after “also recorded” stand apart in the source; their conditions may differ.

Test system: Raf/Mek/Erk pathway
Assay: Western blot of phosphorylated c-Raf, Mek1/2, Erk1/2 and Elk-1 in K562 cells
Format: cell-based, human
Conditions: 50 μM
Method: K562 leukemia cells were serum starved for 18 hours prior to cucurbitacin B treatment. The cells were incubated at a 75-mm culture flask filled with 10 ml growth medium (RPMI with 10% FBS and 1% PS) at the cell density of 1×10^5 cells/ml in the presence or absence of cucurbitacin B for various time intervals. The drug treatment were terminated by centrifugation at 1500 rpm for 5 minutes and the cells were rinsed twice with phosphate-buffered saline and lysed at 4° C. in a lysis buffer containing 50 mM Tris-HCl, pH7.5, […], 5 mM EDTA, 40 mM NaP2O7, 1% Triton X-100, 1 mM dithiothreitol, 200 μM Na3VO4, 100 μM phenylmethysufonyl fluoride, 2 μg/ml leupeptin, 4 μg/ml aprotinin and 0.7 μg/ml pepstatin. The insoluble protein lysate were removed by centrifugation for 10 minutes at 13000 rpm. Fifteen micrograms of protein lysate was resolved using SDS-polyacryamide gel electrophoresis (PAGE) (usually 8%-12% polyacrylamide gel) and then subjected to western blot anaylsis. Western blots were performed with antibodies specific for phosphorylated and total Stat3, c-Raf, Mek, and Erk. […]
In order to further investigate if cucurbitacin B block the Stat3 activation is truly through Erk pathway in K562 cells, the ability of cucurbitacin B to inhibit the Ras/Raf/Mek/Erk pathway was determined by measuring Ras-GTP, phosphorylation of c-Raf, Mek1/2, Erk1/2 and Elk-1 in K562 cells. […]

CC(=O)OC(C)(C)/C=C/C(=O)[C@](C)(O)C1[C@H](O)C[C@@]2(C)C3CC=C4C(C[C@H](O)C(=O)C4(C)C)[C@]3(C)C(=O)C[C@]12C (some centres unmarked) [cucurbitacin B]
activation (phosphorylation) of c-Raf, Mek1/2, Erk1/2 and Elk-1 (5 minutes treatment): significantly inhibited; also recorded: significant disruption
inhibition of the Raf/Mek/Erk pathway (4 hours): Complete inhibition
